“Also recorded” adds a separate entry of the source. Like-named read-outs stand apart in the source and are kept apart here. Where no end group is shown, it is not given here.
How the values were obtained:
human islets = assay: glucose-stimulated insulin secretion in human islets; type: cell-based
Description: The incubation medium was subsequently collected, the islets sonicated briefly (1-2 periods of 10 s) in acidic ethanol and frozen overnight. Samples from the medium and the islets were appropriately diluted and analyzed in duplicates for insulin using an immunoassay kit from Mesoscale Discovery (Rockville, MD, USA). Secretion was normalized to insulin content and expressed in relation to that at 20 mM glucose. In some experiments, the islets were placed in a closed 10-μL Teflon tubing perfusion. The chamber was perfused with buffer at a rate of 60 μL/min (AutoMate Scientific, Berkeley, CA). […] Three fractions were collected for each condition and analyzed for insulin. The results are presented as one data point per condition, which represents the average of the last two fractions at that condition. The first fraction was excluded since it was influenced by the preceding condition.

[1] = cited from earlier work
[2] = test system: insulin granule exocytosis in human islet cells; assay: insulin granule exocytosis imaging by TIRF microscopy; type: cell-based
Description: The islets were dissociated into single cells in 0.0025% trypsin in cell dissociation buffer (Hank's based) for 3-5 minutes. Cells were washed once in serum-containing medium, plated onto 22-mm polylysine-coated coverslips and allowed to settle overnight. Adenovirus particles adNPY-Venus (Tsuboi et al., 2006) or adNPY-mCherry (Meur et al., 2010) was added and cells were imaged 24-36 hours later. Cells selected for experiments expressed the granule marker and appeared healthy. Cells were imaged in a standard solution containing (mM): 138 NaCl, 5.6 KCl, 1.2 MgCl2, 2.6 CaCl2, 20 D-glucose, 5 HEPES (pH 7.4 with NaOH) (Barg et al., 2002; Gandasi and Barg, 2014). For depolarization dependent exocytosis experiments, glucose was 10 mM and the solution supplemented with 2 μM forskolin and 200 μM diazoxide, a K^+-ATP-channel opener that prevents glucose-dependent depolarization. Exocytosis was then evoked with high K^+ solution (75 mM KCl equimolarly replacing NaCl). High K^+ was applied by computer-timed local pressure ejection through a glass pipette similar to those used for patch clamp. All experiments were carried out at ˜32° C. Cells were imaged using a custom-built lens-type total internal reflection (TIRF) microscope based on an Axiovert 135 microscope with a 100×/1.45 objective (Carl Zeiss). Excitation was from a DPSS laser at 491 (Cobolt, Stockholm, Sweden), controlled with an acousto-optical tunable filter (AA-Opto, France) and using dichroic Di01-R488/561 (Semrock) and emission filter FF01-523/610 (Semrock). Scaling was 160 nm per pixel and exposure time 100 ms per frame at 10 frames/s. Exocytosis events were found by eye. The moment of exocytosis was defined as the first significant change (2 standard deviations) from the pre-exocytosis baseline. This definition applied to both types of events, with or without preceding flash. The decay time was then defined as the time from exocytosis until the signal reached less than one third of the amplitude of the event. Traces were read out as DF, defined as average fluorescence in a 0.5 μm circle minus the average fluorescence in a surrounding annulus of 0.8 μm. The point of exocytosis was calculated by fitting the granule fluorescence during exocytosis with a discontinuous function (Eq 1), which assumes constant fluorescence before fusion, an inverted exponential decay just after fusion, and finally exponential decay during content release:
where t is time; c is average fluorescence in a 0.48 μm wide circle at the granule site; A1, A2 and A3 are the fluorescence values at the plateaus; τ1 and τ2 are the decay constants for the fluorescence increase after fusion and content release; and t1 and t2 are the times of fusion and release, respectively.

iGABAARII = assay: whole-cell patch-clamp single-channel currents in β cells of intact human islets, iGABAARII; type: cell-based
Description: (§1) Human islets were generously provided by the Nordic Network for Clinical Islet Transplantation, supported by EXODIAB and the Juvenile Diabetes Research Foundation. All procedures were approved by the regional ethics committee in Uppsala and informed consent obtained by appropriate measures from donors or their relatives. […] The islets were then hand-picked and cultured free-floating in CMRL 1066 (ICN Biomedicals, Costa Mesa, CA, USA) supplemented with 10 mM HEPES, 2 mM L-glutamine, 50 jig/ml gentamicin, 0.25 jig/ml fungizone (GIBCO, BRL, Gaithersburg, MD, USA), 20 jig/ml ciprofloxacin (Bayer Healthcare, Leverkusen, Germany), and 10 mM nicotinamide at 37° C. in humidified atmosphere containing 5% CO2, vol/vol and used in the experiments from second day of incubation up to 10 days of culturing.
(§2) The whole-cell patch-clamp configuration was obtained on intact islets using the blind patch-clamp technique (Hamill et al., 1981; Jin et al., 2011; Neher and Sakmann, 1976) and single-channel currents were recorded at room temperature (20-22° C.) or at 34° C. The single intact islet was held by the holding pipette and approached by the recording pipette from the other side (see FIG. 1a). The holding and recording pipettes were made from borosilicate glass. During experiments, the pancreatic islets were perfused with the extracellular solution (mM): 137 NaCl, 5.6 KCl, 2.6 CaCl2, 1.2 MgCl2, 10 HEPES and 20 glucose (pH 7.4 using NaOH) at the rate of 3 mL/min. The intracellular solution consisted of (mM): 135 CsCl, 30 CsOH, 1 MgCl2, 10 EGTA, 5 HEPES and 3 Mg-ATP (pH 7.2 with HCl). Drugs were purchased from Sigma-Aldrich (Steinheim, Germany) or Ascent Scientific (Bristol, UK). Pentobarbital, propofol, GLP-1 and the GABAAR antagonist SR95531 were dissolved in the extracellular solution. Diazepam, zolpidem and the GABAAR antagonist picrotoxin stock solutions were made in dimethyl sulfoxide (DMSO) and then dissolved in the extracellular solution. […] Recordings were done using an Axopatch 200B amplifier, filtered at 2 kHz, digitized on-line at 10 kHz using an analog-to-digital converter and Clampex 10.5 (Molecular Devices, CA, USA) software. The access resistance was monitored and if it changed by more than 25%, the recording was rejected. The single-channel parameters (amplitude, frequency/opening rate, conductance, open probability Po, mean current Imean and mean open time To) were analyzed by Channel3 (Nicholas Laver, Derek Laver, the University of Newcastle, Australia) and Clampfit 10.5 (Molecular Devices, USA). We used a simplified version of a model, previously established by Jones and Westbrook (Jones and Westbrook, 1995) to describe the activation of GABAA receptors (see FIG. 2a model scheme). Simulations of opening rate and mean open time were generated from this theoretical model using the ‘Q-matrix’ method of Colquhoun and Hawkes (Colquhoun and Hawkes, 1981, 1982). We accounted for the effects of missed events due to filtering using the ‘effective rate constant’ method of Blatz and Magleby (Blatz and Magleby, 1986) incorporating an event dead-time of 0.1 ms.

[3] = test system: iGABAARs in human pancreatic islet β cells; type: cell-based
Description: as §1, §2

iGABAARI = assay: whole-cell patch-clamp single-channel currents in β cells of intact human islets, iGABAARI; type: cell-based; conditions: for GABA-activated single-channel conductance: 100 nM GABA; for reduction of Ka for GABA activation in T2D donors: T2D vs ND donors
Description: as §1, §2

[4] = 20 mM glucose, with GABA, one T2D donor
[5] = activated by interstitial GABA, room temperature
[6] = diazepam 1 μM, propofol 10 μM, pentobarbital 100 μM, zolpidem 200 nM
[7] = diazepam 1 μM, propofol 10 μM, pentobarbital 100 μM, zolpidem 100 or 200 nM
[8] = GLP-1 application and following washout, n=5

## NCCCC(=O)O [GABA, gamma-aminobutyric acid]
Human islets; 100 nM GABA, 10 ND donors
  insulin secretion normalized to the 20 mM glucose response: 1.6±0.2
Human islets; 100 nM GABA, 10 ND donors, average
  increase of insulin secretion: approximately 60%
Human islets; GABA, islets from three ND donors
  insulin secretion normalized to the 20 mM glucose response: 0.7±0.01
[1]; after administration in connection with ingestion of food
  time to maximum blood serum level of GABA: approximately 45 minutes
[1]; from the administration of GABA
  time after which blood serum levels of GABA markedly decrease: approximately 90 minutes
[2]; 20 mM glucose >10 min, GABA present, ND donors
  exocytosis: ~5 granules/min
[2]; 20 mM glucose >10 min, GABA present, two ND donors, n=6
  exocytosis events per area and time: 0.095±0.01 10^−3·tm^−2·s^−1
[2]; [4]
  exocytosis: ~1 granules/min
  exocytosis events per area and time: 0.019±0.008 10^−3·tm^−2·s^−1
[2]; 75 mM K+ depolarization, 100 nM GABA
  exocytosis for an average-sized cell: ~150 granules/min
[2]; 75 mM K+ depolarization, 100 nM GABA, n=7
  exocytosis events per area and time: 2.5±0.6 10^−3·tm^−2·s^−1
[2]; 75 mM K+ depolarization, presence of GABA
  loss of NPY-Venus from individual granules (decay constant): 0.86 ± 0.09 s
iGABAARII; ND donors, 34° C.
  GABA concentration at peak opening rate: 1 µM
iGABAARII; ND donors, 34° C. vs RT
  increase of Ka on raising the temperature to 34° C.: 23 fold
iGABAARII; ND donors, room temperature
  GABA concentration at peak opening rate: 0.1 µM
iGABAARII; T2D vs ND donors, 34° C.
  reduction of Ka for GABA activation in T2D donors: 300 fold
iGABAARII; [5]
  cord conductance: 76 pS
[3]
  GABA concentration above which receptors are desensitized and stop working: exceeding 1000 nM
  optimal GABA concentrations for active iGABAARs: 100 nM to submicromolar
[3]; 100 nM GABA, Vp=−70 mV, 34° C.
  effect on mean current (Imean): significantly (P<0.05) enhanced
  effect on open probability (Po): significantly (P<0.05) enhanced
[3]; GABA applied 1 to 10^4 nM
  GABA concentration at which GABA-activated Cl− currents were evoked: > 10 nM
[3]; islets from ND and T2D donors
  effect on mean open times To: did not affect
  effect on rate (frequency) of channel openings: increased
[3]; kinetic model
  GABA concentration at which channels start to desensitize: about 1 μM
iGABAARI; islets from ND donors
  GABA-activated single-channel conductance: 41±3 pS
iGABAARI; islets from T2D donors
  GABA-activated single-channel conductance: 55±5 pS
iGABAARI; ND donors
  GABA concentration at maximal rate (frequency) of channel openings: 100 nM
iGABAARI; 34° C.
  reduction of Ka for GABA activation in T2D donors: ~3 fold
iGABAARI; RT
  reduction of Ka for GABA activation in T2D donors: 6 fold
iGABAARI; [5]
  cord conductance: 37 pS

## Br.COc1ccc(-c2ccc(=N)n(CCCC(=O)O)n2)cc1 [SR95531]
[3]
  inhibition of iGABAAR (GABA-activated) currents: inhibited

## CN1C(=O)CN=C(c2ccccc2)c2cc(Cl)ccc21 [diazepam]
[3]; [6]
  effect on mean single-channel current (Imean): significantly increased
  effect on opening frequency of iGABAARs: significantly increased
[3]; [7]
  modulation of iGABAAR-mediated single-channel currents: enhanced

## CCCC(C)C1(CC)C(=O)NC(=O)NC1=O (stereo not shown) [pentobarbital, 5-ethyl-5-(1-methylbutyl)-barbiturate]
[3]; [6]
  effect on mean single-channel current (Imean): significantly increased
  effect on opening frequency of iGABAARs: significantly increased
[3]; [7]
  modulation of iGABAAR-mediated single-channel currents: enhanced

## CC(C)c1cccc(C(C)C)c1O [propofol]
[3]
  effect on mean single-channel current (Imean): significantly increased
  effect on opening frequency of iGABAARs: significantly increased
  modulation of iGABAAR-mediated single-channel currents: enhanced

## Cc1ccc(-c2nc3ccc(C)cn3c2CC(=O)N(C)C)cc1 [zolpidem]
[3]; [6]
  effect on mean single-channel current (Imean): not
  effect on opening frequency of iGABAARs: not
[3]; [7]
  modulation of iGABAAR-mediated single-channel currents: did not modulate and not

## GLP-1: metabolic, gastrointestinal peptide hormone secreted by L-cells in the gut; enhances insulin secretion (HAEGTFTSDVSSYLEGQAAKEFIAWLVKGR; ends and bridges not checked; UniProt P01275 98-127, looked up) [reference compound]
iGABAARII; [8]
  effect on single-channel conductance: did not significantly change
[3]; GABA signalling stays elevated in absence of GLP-1
  time β-cells remember the GLP-1 activation after GLP-1 is no longer in circulation: up to 30 minutes
[3]; GLP-1 50 pM in the presence of GABA 10 nM
  effect on iGABAAR-mediated single-channel currents: potentiated
iGABAARI; GLP-1 50 pM, n=6
  effect on opening frequency of iGABAARI channels: significantly increased
iGABAARI; [8]
  effect on single-channel conductance: did not significantly change
iGABAARI; post GLP-1 vs before GLP-1 application
  opening frequency / current enhancement after GLP-1 washout: remained, albeit at a reduced level; also recorded: remained significantly higher

## picrotoxin [reference compound]
Human islets; picrotoxin added with GABA, ND donors
  effect on the GABA-induced change of insulin secretion: reversed
[3]; antagonist 100 μM where stated
  inhibition of iGABAAR (GABA-activated) currents: inhibited

From patent US12161695B2 (priority 2018, dated 2024)
